The values below come from publication PMC4460250, “Systems Pharmacology Dissecting Holistic Medicine for Treatment of Complex Diseases: An Example Using Cardiocerebrovascular Diseases Treated by TCM” (Evidence-based Complementary and Alternative Medicine : eCAM, 2015).

For data set [1] the following is noted: in vivo.
For data set [2] the following is noted: in vivo; cited from earlier work.

Turning to `COC(=O)C1=C(C#N)NC(C)=C(C(=O)OC(C)C)[C@@H]1c1cccc([N+](=O)[O-])c1` [Nilvadipine(S)], the “Class(High: HIA value ≥0.7; Low: HIA value < 0.7)” value in data set [1] is recorded as “High (key: High: HIA value ≥0.7; Low: HIA value < 0.7)”. Further, the “HIA(Human Intestinal Absorption)” value in data set [2] is given as 1.

For `CCOC(=O)C1(c2ccccc2)CCC=CC1N(C)C` (stereo not shown) [Tilidine], the “Class(High: HIA value ≥0.7; Low: HIA value < 0.7)” value in data set [1] was “High (key: High: HIA value ≥0.7; Low: HIA value < 0.7)”. Also, the “HIA(Human Intestinal Absorption)” value in data set [2] is on record as 1.

With `NC(=O)C[S+]([O-])C(c1ccccc1)c1ccccc1` (stereo not shown) [Modafinil], the “Class(High: HIA value ≥0.7; Low: HIA value < 0.7)” value in data set [1] was “High (key: High: HIA value ≥0.7; Low: HIA value < 0.7)”. Moreover, in data set [2], the “HIA(Human Intestinal Absorption)” value was 0.8.

As for `O/N=C/c1cc[n+](COC[n+]2ccc(/C=N/O)cc2)cc1` [Obidoxime], the “Class(High: HIA value ≥0.7; Low: HIA value < 0.7)” value in data set [1] is listed as “Low (key: High: HIA value ≥0.7; Low: HIA value < 0.7)”. In data set [2], the “HIA(Human Intestinal Absorption)” value is recorded as 0.05.

For the molecule `COc1ccc(C[C@@H](C)N)cc1` [Methoxyamphetamine(R)], the “Class(High: HIA value ≥0.7; Low: HIA value < 0.7)” value in data set [1] is “High (key: High: HIA value ≥0.7; Low: HIA value < 0.7)”. Further, in data set [2], the “HIA(Human Intestinal Absorption)” value is reported as 0.8.

Consider `C=CCOc1ccccc1OC[C@@H](O)CNC(C)C` [Oxprenolol(S)], for which the “Class(High: HIA value ≥0.7; Low: HIA value < 0.7)” value in data set [1] is reported as “High (key: High: HIA value ≥0.7; Low: HIA value < 0.7)”. The “HIA(Human Intestinal Absorption)” value in data set [2] is listed as 0.95.

Take `CCO` [Ethyl_alcohol]: in data set [1], the “Class(High: HIA value ≥0.7; Low: HIA value < 0.7)” value is recorded as “High (key: High: HIA value ≥0.7; Low: HIA value < 0.7)”. Further, the “HIA(Human Intestinal Absorption)” value in data set [2] is recorded as 1.

`CC(C)(C)NC[C@@H](O)c1cc(O)cc(O)c1` [Terbutaline(S)]: the “Class(High: HIA value ≥0.7; Low: HIA value < 0.7)” value in data set [1] is recorded as “Low (key: High: HIA value ≥0.7; Low: HIA value < 0.7)”. Also, in data set [2], the “HIA(Human Intestinal Absorption)” value is listed as 0.63.

On to `CCn1cc(C(=O)O)c(=O)c2cc(F)c(N3CCN[C@@H](C)C3)c(F)c21` [Lomefloxacin(S)], for which, in data set [1], the “Class(High: HIA value ≥0.7; Low: HIA value < 0.7)” value is “High (key: High: HIA value ≥0.7; Low: HIA value < 0.7)”. In addition, the “HIA(Human Intestinal Absorption)” value in data set [2] was 0.99.

`COc1ccc2c3c1O[C@H]1[C@@H](O)CC[C@H]4[C@@H](C2)N(C)CC[C@@]341` [Dihydrocodeine]: the “Class(High: HIA value ≥0.7; Low: HIA value < 0.7)” value in data set [1] is listed as “High (key: High: HIA value ≥0.7; Low: HIA value < 0.7)”. For the same molecule, in data set [2], the “HIA(Human Intestinal Absorption)” value is given as 0.88.

On to `O=C(O[C@H]1C[C@H]2CC[C@@H](C1)[N+]21CCCC1)C(O)(c1ccccc1)c1ccccc1` [Trospium_chloride], for which, in data set [1], the “Class(High: HIA value ≥0.7; Low: HIA value < 0.7)” value was “Low (key: High: HIA value ≥0.7; Low: HIA value < 0.7)”. For the same molecule, the “HIA(Human Intestinal Absorption)” value in data set [2] is reported as 0.1.

In the case of `CCCC[C@H]1C(=O)N(c2ccccc2)N(c2ccc(O)cc2)C1=O` [Oxyphenbutazone(S)], the “Class(High: HIA value ≥0.7; Low: HIA value < 0.7)” value in data set [1] is given as “High (key: High: HIA value ≥0.7; Low: HIA value < 0.7)”. Besides, in data set [2], the “HIA(Human Intestinal Absorption)” value is listed as 1.

Take `O[C@@](CCN1CCCC1)(c1ccccc1)C1CCCCC1` [Procyclidine(R)]: the “Class(High: HIA value ≥0.7; Low: HIA value < 0.7)” value in data set [1] is “High (key: High: HIA value ≥0.7; Low: HIA value < 0.7)”. Besides, the “HIA(Human Intestinal Absorption)” value in data set [2] is 1.

Regarding `CN1[C@@H](CSCC(F)(F)F)Nc2cc(Cl)c(S(N)(=O)=O)cc2S1(=O)=O` [Polythiazide(S)], in data set [1], the “Class(High: HIA value ≥0.7; Low: HIA value < 0.7)” value is on record as “High (key: High: HIA value ≥0.7; Low: HIA value < 0.7)”. For the same molecule, the “HIA(Human Intestinal Absorption)” value in data set [2] is given as 1.

Take `Cn1c(=O)c2c(ncn2CCCNC[C@@H](O)c2cc(O)cc(O)c2)n(C)c1=O` [Reproterol(S)]: the “Class(High: HIA value ≥0.7; Low: HIA value < 0.7)” value in data set [1] is recorded as “Low (key: High: HIA value ≥0.7; Low: HIA value < 0.7)”. In addition, the “HIA(Human Intestinal Absorption)” value in data set [2] is 0.6.

Turning to `OC[C@@H](O)COc1ccc(Cl)cc1` [Chlorphenesin(R)], in data set [1], the “Class(High: HIA value ≥0.7; Low: HIA value < 0.7)” value is reported as “High (key: High: HIA value ≥0.7; Low: HIA value < 0.7)”. In addition, the “HIA(Human Intestinal Absorption)” value in data set [2] was 1.

For the molecule `O=C1CN=C(c2ccccn2)c2cc(Br)ccc2N1` [Bromazepam], the “Class(High: HIA value ≥0.7; Low: HIA value < 0.7)” value in data set [1] is “High (key: High: HIA value ≥0.7; Low: HIA value < 0.7)”. In addition, the “HIA(Human Intestinal Absorption)” value in data set [2] is recorded as 0.84.
